The values below come from patent US8022056B2, “Compositions and methods for the treatment of cancer” (Tautatis, Inc, priority 2006, dated 2011).

Structures are written as SMILES.

One data set relates to NCI-H23 xenograft. Nature of the data set: Mouse xenograft model NCI-H23. The data set is classed as in vivo. The note with it: Lung, Ras/p53; oral twice daily dosing. The method, then:
(§1) The efficacy of the compound of the formula 1 was confirmed in mouse tumor xenograft models, employing the NMRI(nu/nu) strain of mice. For example, cells from the human tumor cell lines MDA-MB-231, U373, and HT29 were pre-incubated subcutaneously in several nude mice to select for the most robustly growing cell population. After having grown to a sufficient size after 2-3 weeks, a piece of about 2 mm^3 volume of the most suitable tumor was transplanted subcutaneously into the region of the thoracic mammary fat pads, an area ensuring a high degree of vascularization of the grafted tissue. […] During the course of the treatment, the weight of the animals and the size of the transplanted tumor was monitored three times a week. […] These doses are best determined separately for each individual mouse strain employed.
(§2) To establish a solid tumour 3×10^6 tumor cells suspended in 100 μl of serum free medium (RPMI) were inoculated subcutaneously into the region of the thoracic mammary fat pads of 5 Male NMRI(nu/nu) mice of 8-10 weeks of age. […] During the course of the treatment body weight changes and tumor growth were recorded three times a week. Growth curves were plotted together with standard deviations and the significance of differences was determined using an unpaired t-test in FIG. 11. […]

Data set [1] can be described thus: Pharmacokinetics in mouse plasma and brain after oral dosing. The data set is classed as in vivo. The method, then:
Standard curves were established for the compound 1 reextracted from serum samples and brain homogenates, using the related compound 2 as internal standard. 200 μl serum samples prepared from mouse or human blood, and homogenates of 0.2 g mouse brain tissue in 0.3 ml saturated NaCl solution, were spiked with a range of concentrations of compound 1 at 10 nM, 30 nM, 100 nM, 300 nM, 1 μM, 3 μM in a mix with 500 nM of compound 2 as internal standard in DMSO (final DMSO not exceeding 2%). Serum and homogenate samples were mixed with 100 μl conc. Ammonia, and 200 μl sat'd NaCl solution was added to the serum samples. […] were reextracted twice with 2 ml ethylacetate each by vigorous vortexing for 1 min. Combined organic extracts were evaporated in a SpeedVac, and residues were taken up in 300 μl of 40% water/60% methanol (0.1% formic acid). Samples were analyzed by reversed phase HPLC on a […] Zorbox 300SB-C8 2.1×150 mm column at 45° C. […]
Mice were dosed at 12.5 mg/kg in a vehicle of 50 mM (−)-lactic acid in 50% PEG400, and sacrificed by cardiac puncture after various time intervals. […] Reextraction was performed, and ratios of analyte 1 and internal standard 2 were determined as described above. The concentrations of compound 1 in the serum and brain samples was calculated from the standard curve.

In the next data set the target is PKC. Nature of the data set: Kinase inhibition under standard conditions, PKC. The data set is classed as biochemical.
Another data set deals with SK-MEL-5 xenograft. The experiment in a line: Mouse xenograft model SK-MEL-5. In kind it is in vivo. The note with it: Melanoma, Raf/CDKN2A; oral twice daily dosing. The method, then:
as §1, §2

In a further data set the target is CDK1 (Homo sapiens, UniProt P06493). Nature of the data set: Kinase inhibition under standard conditions, CDK1. In kind it is biochemical.
The target in data set [2] is T1, ABC-B1 (glycoprotein gp170) (Homo sapiens, UniProt P08183).
T1 construct: Kb-V1 cells expressing high levels of gp170; endogenous in cells; host or cells: Kb-V1 cells
The experiment in a line: Competition with MDR-driven efflux of calcein-AM in Kb-V1 cells (FACS). The data set is classed as cell-based. From the text: FIG. 6 compares the recognition of compound 1 and of the compound 6 by two frequently involved multi-drug resistance proteins ABC-B1 (glycoprotein gp170) (A), and ABC-G2 (breast cancer resistance protein BCRP) (B). Measurements were based on competition with the MDR-driven efflux of calcein-AM in Kb-V1 cells expressing high levels of gp170, or competition with the efflux of mitoxandrone in MCF-7 cells by the respective compounds within their effective concentration range. Uptake of fluorescent reporter compounds by competition with 1 or 6 was assessed by FACS as described in Mueller et al., Cancer Chemother. Pharmacol. 59, 157-164 (2007).

Another data set concerns the target ERK2 (Homo sapiens, UniProt P28482). Nature of the data set: Kinase inhibition under standard conditions, ERK2. The data set is classed as biochemical.
Another data set concerns the target PKA. The experiment in a line: Kinase inhibition under standard conditions, PKA. The data set is classed as biochemical.

T1 sequence (P08183 whole entry): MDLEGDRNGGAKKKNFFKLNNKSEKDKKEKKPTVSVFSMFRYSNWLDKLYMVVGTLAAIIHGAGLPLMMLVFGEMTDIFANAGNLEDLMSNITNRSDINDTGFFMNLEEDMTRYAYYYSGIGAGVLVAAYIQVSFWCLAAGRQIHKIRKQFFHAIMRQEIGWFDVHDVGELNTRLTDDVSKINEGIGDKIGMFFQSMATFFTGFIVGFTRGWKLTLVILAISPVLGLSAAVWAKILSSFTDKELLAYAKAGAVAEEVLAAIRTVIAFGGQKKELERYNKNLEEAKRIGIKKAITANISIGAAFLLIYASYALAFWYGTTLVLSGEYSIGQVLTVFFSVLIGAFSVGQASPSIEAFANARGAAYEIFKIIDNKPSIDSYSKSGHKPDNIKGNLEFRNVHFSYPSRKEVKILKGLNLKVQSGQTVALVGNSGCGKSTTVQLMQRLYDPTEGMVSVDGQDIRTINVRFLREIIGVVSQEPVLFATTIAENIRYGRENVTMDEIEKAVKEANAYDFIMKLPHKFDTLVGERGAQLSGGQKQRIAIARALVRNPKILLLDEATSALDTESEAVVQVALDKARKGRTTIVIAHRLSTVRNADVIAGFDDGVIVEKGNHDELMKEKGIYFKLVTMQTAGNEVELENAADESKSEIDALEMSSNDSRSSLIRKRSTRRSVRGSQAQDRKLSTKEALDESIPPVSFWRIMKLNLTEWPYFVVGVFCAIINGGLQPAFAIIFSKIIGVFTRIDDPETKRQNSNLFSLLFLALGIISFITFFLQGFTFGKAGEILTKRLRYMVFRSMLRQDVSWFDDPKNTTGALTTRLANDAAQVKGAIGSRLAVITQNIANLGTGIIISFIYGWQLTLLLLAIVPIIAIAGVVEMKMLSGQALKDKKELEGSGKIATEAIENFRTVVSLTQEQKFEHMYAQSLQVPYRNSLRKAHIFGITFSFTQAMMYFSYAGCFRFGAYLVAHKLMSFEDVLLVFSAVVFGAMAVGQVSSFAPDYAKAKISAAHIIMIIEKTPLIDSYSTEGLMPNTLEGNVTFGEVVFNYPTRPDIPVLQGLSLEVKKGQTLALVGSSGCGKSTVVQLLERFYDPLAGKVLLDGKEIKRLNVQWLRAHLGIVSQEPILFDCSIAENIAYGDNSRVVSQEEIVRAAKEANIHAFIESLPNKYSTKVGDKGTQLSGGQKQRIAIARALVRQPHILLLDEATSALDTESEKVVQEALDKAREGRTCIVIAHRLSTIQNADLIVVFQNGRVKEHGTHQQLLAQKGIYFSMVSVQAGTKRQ
Chain of ERK2 (P28482 whole entry, species assumed): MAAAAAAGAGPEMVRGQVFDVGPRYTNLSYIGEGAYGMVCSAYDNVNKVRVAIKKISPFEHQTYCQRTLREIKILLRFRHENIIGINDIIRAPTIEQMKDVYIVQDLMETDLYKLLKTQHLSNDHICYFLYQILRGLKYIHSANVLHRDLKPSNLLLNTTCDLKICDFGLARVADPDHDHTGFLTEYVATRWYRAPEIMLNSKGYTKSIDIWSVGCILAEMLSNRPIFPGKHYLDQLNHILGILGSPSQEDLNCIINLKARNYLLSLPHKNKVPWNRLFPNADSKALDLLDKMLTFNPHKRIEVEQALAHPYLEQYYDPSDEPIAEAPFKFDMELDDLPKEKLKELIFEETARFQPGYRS
Chain of CDK1 (P06493 whole entry, species assumed): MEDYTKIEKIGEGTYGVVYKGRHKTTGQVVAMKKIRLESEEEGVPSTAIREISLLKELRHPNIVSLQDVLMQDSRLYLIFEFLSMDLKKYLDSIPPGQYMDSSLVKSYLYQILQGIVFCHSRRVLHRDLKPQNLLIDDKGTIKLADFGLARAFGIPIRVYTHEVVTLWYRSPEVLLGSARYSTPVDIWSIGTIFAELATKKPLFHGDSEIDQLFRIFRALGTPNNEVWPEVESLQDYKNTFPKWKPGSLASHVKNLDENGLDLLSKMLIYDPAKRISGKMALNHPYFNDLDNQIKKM
Chain of CDK1 (P14635 whole entry partner, species assumed): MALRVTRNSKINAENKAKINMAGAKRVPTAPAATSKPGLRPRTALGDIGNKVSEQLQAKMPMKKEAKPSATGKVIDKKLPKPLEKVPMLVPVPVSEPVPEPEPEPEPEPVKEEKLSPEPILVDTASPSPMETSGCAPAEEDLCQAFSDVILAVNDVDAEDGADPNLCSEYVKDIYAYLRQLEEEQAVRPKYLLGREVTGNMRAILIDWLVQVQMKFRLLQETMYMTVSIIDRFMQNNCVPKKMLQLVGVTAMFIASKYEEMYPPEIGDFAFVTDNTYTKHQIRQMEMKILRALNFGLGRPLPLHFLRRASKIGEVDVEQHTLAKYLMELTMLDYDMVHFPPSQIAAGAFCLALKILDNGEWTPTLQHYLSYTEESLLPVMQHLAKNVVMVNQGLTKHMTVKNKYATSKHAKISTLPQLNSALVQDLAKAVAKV

In general, IC50 refers to the concentration needed to halve the response being measured. Low values mean inhibition by little substance, high ones a need for much substance. On to `CNC(=O)[C@@]1(N)C[C@H]2O[C@]1(C)n1c3ccccc3c3c4c(c5c6ccccc6n2c5c31)C(=O)NC4` [Compound 1], for which the figures for the “Mean % Inhibition” value with NCI-H23 xenograft and in the data set with SK-MEL-5 xenograft were 92% and 122%, respectively. For the same compound, the results for the “N tumors with no/neg. growth” value in the data set with NCI-H23 xenograft and in the data set on SK-MEL-5 xenograft were 5 of 10 and 7 of 10, respectively. The “maximal free plasma concentration sustained over prolonged periods” value in data set [1] (in vivo, practical forms of oral dosing) is listed as “about 200 nM”. Moreover, the “penetration of the CNS” value in data set [1] (mouse plasma and brain, oral dosing) was “good penetration of the CNS”. In addition, the IC50 against PKC is 1.28 µM; on CDK1, 0.043 µM; on ERK2, 0.064 µM; on PKA it was 0.3 µM. Moreover, the “separation of anti-proliferative potency range from uptake concentration for efflux transporter, versus compound 6” value in data set [2] is “more clearly separated”.
